Measurements from patent publication US20140371165A1, “Identification of NSC23925 Isomers to Reverse Multidrug Resistance in Human Cancers” (priority 2012, published 2014).
Structures can show the parent of a compound that is named as a salt.

Key:
[1] = Solubility in organic solvents; format: physicochemical
[2] = test system: SKOV-3TR; test: MTT cytotoxicity assay and reversal of MDR in SKOV-3TR; format: cell-based, human
Excerpt: A panel of parental cancer cell line and their daughter resistant cell lines, displaying MDR phenotype were used in this study. Human ovarian cancer cell line SKOV-3, breast cancer cell line MCF-7 and colon cancer cell line SW480, the osteosarcoma cell line U-2OS, KHOS, uterine sarcoma cell line MESSA and its doxorubicin selected drug resistant cell line MESSA/Dx5, non-small cell lung cancer cell line H-69 and its doxorubicin selected drug resistant cell line H-69AR (overexpress MRP1) were obtained from the ATCC (Rockville, Md.). Dr. Efstathios Gonos (Institute of Biological Research & Biotechnology, Athens, Greece) provided the doxorubicin resistant U-2OS R2 (referred in the text below as U-2OSDR), KHOS R2 cell lines. Dr. Erasmus Schneider (Wadsworth Center, Albany) provided the mitoxantrane resistant breast cancer MCF-7/MX (overexpress BCRP) cell line. All the cell lines were cultured in RPMI 1640 (Invitrogen, Carlsbad, Calif.) supplemented with 10% fetal bovine serum, 100-units/ml penicillin and 100 μg/ml streptomycin (Invitrogen). Cells were incubated at 37° C. in 5% CO2-95% air atmosphere and passaged when near confluent monolayers were achieved using 2% trypsin-EDTA solution. […] The fresh chemotherapy drugs were obtained from the pharmacy at the Massachusetts General Hospital and stored at −20° C.
To evaluate for reversal of Pgp-mediated MDR, SKOV-3TR, MCF-7adr and SW480TR cell lines were seeded into 96-well tissue culture plate at 2,000 cells per well with varying concentrations of chemotherapy drugs and NSC23925b for 6 days. Cell proliferation IC50 (concentration required for 50% inhibition) and MDR reversal IC50 were determined from dose-response curves carried out in triplicate in 96-well plate. Fold of reverse resistance for individual drugs were defined as the IC50 of MDR cells without NSC23925b treatment divided by the IC50 of MDR cells treated with NSC23925b. […] Drug cytotoxicity was assessed in vitro using the MTT assay as previously described. […] Response curves were fitted with use of GraphPad PRISM 4 software (GraphPad Software).
Structure and activity relationship (SAR) of the four NSC23925 isomers for reversing MDR were evaluated in human ovarian cancer MDR cell line SKOV-3TR by MTT assay (FIGS. 1A-D). Cells were treated with the paclitaxel and NSC23925 diastereomers NSC23925a (FIG. 1A), NSC23925b (FIG. 1B), NSC23925c (FIG. 1C) and NSC23925d (FIG. 1D) in RPMI1640 complete media at the indicated concentrations. The relative sensitivity of each line to paclitaxel was determined by MTT analysis 6 days post-treatment.

[3] = test system: H-69AR; test: MTT reversal of MRP1-mediated MDR in H-69AR; format: cell-based, human; conditions: non-Pgp expressing drug resistant cell line
[4] = test system: MCF-7/MX; test: MTT reversal of BCRP-mediated MDR in MCF-7/MX; format: cell-based, human; conditions: non-Pgp expressing drug resistant cell line
Excerpt: A panel of parental cancer cell line and their daughter resistant cell lines, displaying MDR phenotype were used in this study. Human ovarian cancer cell line SKOV-3, breast cancer cell line MCF-7 and colon cancer cell line SW480, the osteosarcoma cell line U-2OS, KHOS, uterine sarcoma cell line MESSA and its doxorubicin selected drug resistant cell line MESSA/Dx5, non-small cell lung cancer cell line H-69 and its doxorubicin selected drug resistant cell line H-69AR (overexpress MRP1) were obtained from the ATCC (Rockville, Md.). Dr. Efstathios Gonos (Institute of Biological Research & Biotechnology, Athens, Greece) provided the doxorubicin resistant U-2OS R2 (referred in the text below as U-2OSDR), KHOS R2 cell lines. Dr. Erasmus Schneider (Wadsworth Center, Albany) provided the mitoxantrane resistant breast cancer MCF-7/MX (overexpress BCRP) cell line. […]
To evaluate for reversal of Pgp-mediated MDR, SKOV-3TR, MCF-7adr and SW480TR cell lines were seeded into 96-well tissue culture plate at 2,000 cells per well with varying concentrations of chemotherapy drugs and NSC23925b for 6 days. […] Drug cytotoxicity was assessed in vitro using the MTT assay as previously described. Drugs at the concentrations utilized in the MTT assay were performed in the absence of cells to verify no change in absorbance. […]

[5] = test system: MCF-7adr; test: M30-Apoptosense ELISA apoptosis assay in MCF-7adr; format: cell-based, human; conditions: NSC23925b 1 μM with doxorubicin 0.5 μM, 72 hours
Procedure: Apoptosis was evaluated using the M30-Apoptosense ELISA assay kit (Peviva AB, Bromma, Sweden) according to the manufacturer's instructions. For the doxorubicin and NSC23925b treatment, MCF-7adr or SW480TR cells were seeded at 8,000 cells/per well in a 96-well plate for 24 hours before treatment. The cells were then treated with 0.5 μM of doxorubicin, 1 μM of NSC23925b, or a combination of the two drugs for an additional 72 hours. The cells were then lysed by an additional […] of 10% NP40 per well, following the manufacturer's instructions for apoptosis assay.
The effect of NSC23925b on the doxorubicin induction of apoptosis was assessed in MCF-7adr or SW480TR. cell lines. Cells were treated with either doxorubicin (0.5 μM) alone, NSC23925b (1 μM) alone, or a combination of doxorubicin and NSC23925b for 72 hours. Apoptosis was scored using the M30-Apoptosense ELISA assay.

COc1ccc(-c2cc([C@H](O)[C@H]3CCCCN3)c3ccccc3n2)cc1 [NSC23925b, (2-(4-methoxyphenyl)quinolin-4-yl)(piperidin-2-yl)methanol hydrochloride]
solubility in other solvents ([1]; either, ethyl acetate, chloroform, dichloromethane, acetone, tetrahydrofuran, cyclohexane, cyclopentane, hexanes, pentane): not soluble | solubility in methanol ([1]; methanol): soluble | 5 milligram solubility in methanol ([1]; volume of methanol for 5 milligram): 450 µL | fold-reversal of drug resistance ([2]; Doxorubicin, NSC23925b 0.1 μM): 2 fold | fold-reversal of drug resistance ([2]; Doxorubicin, NSC23925b 0.5 μM): 9 fold | fold-reversal of drug resistance ([2]; Doxorubicin, NSC23925b 1 μM): 32 fold | fold-reversal of drug resistance ([2]; Mitoxantrane, NSC23925b 0.1 μM): 1.2 fold | fold-reversal of drug resistance ([2]; Mitoxantrane, NSC23925b 0.5 μM): 2.6 fold | fold-reversal of drug resistance ([2]; Mitoxantrane, NSC23925b 1 μM): 8 fold | fold-reversal of drug resistance ([2]; Paclitaxel, NSC23925b 0.1 μM): 2 fold | fold-reversal of drug resistance ([2]; Paclitaxel, NSC23925b 0.5 μM): 7 fold | fold-reversal of drug resistance ([2]; Paclitaxel, NSC23925b 1 μM): 28 fold | potency of isomer on reversing drug resistance ([2]; with paclitaxel, MTT 6 days post-treatment): most potent isomer | reversal of MRP1 mediated drug resistance [3]: unable to reverse drug resistance | reversal of BCRP mediated drug resistance [4]: unable to reverse drug resistance | cell death / apoptosis, combination versus either drug alone [5]: significantly greater cell death
